Reference: publication PMC10531517, “Rational Design of Novel Peptidomimetics against Influenza A Virus: Biological and Computational Studies” (International Journal of Molecular Sciences, 2023)
Where a SMILES comes first, the peptide text is derived from it. [ ]: non-standard residue; d: D form. NMeH = CN[C@@H](Cc1c[nH]cn1)C(=O)O; Gly(N-CH2CH2OH) = O=C(O)CNCCO; NMeL = CN[C@@H](CC(C)C)C(=O)O

Tested on: A/Parma/24/09 H1N1 virus
Conditions: for EC50: read-out: EC50 (concentration that reduced cytopathic effect by 50%)

| SMILES | SI (ratio of CC50 and EC50) | EC50 [nM] |
| --- | --- | --- |
| CC(=O)N[C@@H](CO)C(=O)N(C)[C@@H](CC(C)C)C(=O)N[C@@H](CC(=O)O)C(=O)N[C@@H](CS)C(N)=O [Peptide 4, S(N-Me)LDC] (Ac-S[NMeL]DC-NH2) | >2.9 × 10^5 | 0.085 |
| CC(=O)N[C@@H](CO)C(=O)N[C@@H](CCCCN)C(=O)N(C)[C@@H](Cc1c[nH]cn1)C(=O)N[C@@H](CO)C(N)=O [Peptide 9, SK(N-Me)HS] (Ac-SK[NMeH]S-NH2) | >1.78 × 10^3 | 0.143 |
| CC(=O)N[C@@H](CO)C(=O)N[C@@H](CCCCN)C(=O)N[C@@H](Cc1c[nH]cn1)C(=O)N(CCO)CC(N)=O [Peptide 18, SKHNhS] (Ac-SKH[Gly(N-CH2CH2OH)]-NH2) | >5 × 10^5 | 0.05 |
